Measurements as given in US10105323B2, “Pharmaceutical dosage form for immediate release of an indolinone derivative” (Boehringer Ingelheim International GmbH, priority 2008, dated 2018).
Where two headings read alike, the source gives them in different places.

Experiments:
[1] = Phase I trials in cancer patients, dose proportionality of plasma exposure; format: in vivo, human; details: single dose and steady state, qd and bid dosing, visual inspection
Excerpt: However, in three Phase I trials in cancer patients with various advanced solid tumors there was no sign for a deviation from a dose proportional increase in AUC and Cmax of the active substance observed through visual inspection neither after single dose nor at steady state for once and twice daily dosing (FIGS. 9 and 10). […] There was no deviation from dose-proportionality observed for drug plasma concentrations measured before drug administration at steady state (Cpre,ss) in cancer patients in various clinical trials, found through visual inspection.

[2] = Phase 2 monotherapy trials in NSCLC or HRPC patients, pre-dose plasma concentrations; format: in vivo, human; details: 150 and 250 mg twice daily, soft gelatin capsule
[3] = Stress, long-term and accelerated stability studies of soft gelatin capsule systems; format: physicochemical; details: 1 month at 70° C., long-term (3 years), accelerated (6 months)
Excerpt: An advantage of such soft gelatin capsule containing a lipid suspension is that the water uptake into the formulation is very unlikely. The dosage form is divided into three different compartments, namely (a) a hydrophilic capsule shell and (b) the hydrophobic carrier system in which (c) the slightly hygroscopic powder of active substance is suspended. Due to ambient moisture the content of water may vary within these different compartments. It will migrate by diffusion until an equilibrium state is reached. The water content may affect different properties of the drug product, such as the chemical stability of the active substance (predominantly via hydrolysis), the dissolution of the active substance, or the elasticity of the capsule shell. The water uptake in the present system is primarily in the capsule shell. This can be shown by water vapour sorption experiments as well as by the correlation of the mass gain with the softening of the capsule (shown in FIG. 1). […] This is confirmed by the stress stability studies of, for example, 1 month at 70° C., and by long-term (3 years) and accelerated (6 months) stability study results for the systems in accordance with the present invention.

[4] = human, in vivo

COC(=O)c1ccc2c(c1)NC(=O)/C2=C(\Nc1ccc(N(C)C(=O)CN2CCN(C)CC2)cc1)c1ccccc1 [active substance, 3-Z-[1-(4-(N-((4-methyl-piperazin-1-yl)-methylcarbonyl)-N-methyl-amino)-anilino)-1-phenyl-methylene]-6-methoxycarbonyl-2-indolinone-monoethanesulphonate]
gMean AUCτ,ss versus dose [1]: increased in a dose-proportional manner | gMean Cmax,ss versus dose [1]: increased in a dose-proportional manner | pre-dose plasma concentrations at steady state versus dose [2]: no obvious deviation from a dose proportional increase | effect of water uptake on chemical stability [3]: not affect the chemical stability | time to reach maximum plasma concentration (median value) [4]: 2 h | time to reach maximum plasma concentration (range) [4]: 0.75 to 6 h | plasma concentration of the active substance at maximum (gMean value) ([4]; 150 mg): about 9 ng/mL | plasma concentration as % of the maximum plasma concentration ([4]; 24 h): about 15% | plasma concentration as % of the maximum plasma concentration ([4]; 48 h): 7-8%
